Laboratory results: the supplement of paper PMC11061612

Tests used:
Assay in all cases: Bliss excess, mean over the matrix (fraction); higher = more synergy
[1] = system: A3-KAW (B-Cell Non-Hodgkin's Lymphoma)
Outline: (§1)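 After 24 hours at 37°C and 5% CO2 in 1536-well plates, cells in DMEM/F12 or RPMI plus 10% FBS received two-drug dose matrices for 72 hours. Viability came from CellTiter-Glo 2.0 luminescence and was scaled as inhibition, anchored at 0 by vehicle wells and at 1 by blank wells. Combination Emax is taken as the second-highest inhibition in the matrix, and Bliss excess as the observed combination effect less EA + EB − EA·EB, with EA and EB the single-agent effects.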

[2] = system: A549 (Lung Adenocarcinoma)
Outline: as §1

[3] = system: BICR22 (Oral Cavity Carcinoma)
Outline: as §1

[4] = system: CAPAN-2 (Pancreatic Carcinoma)
Outline: as §1

[5] = system: CCK-81 (Colorectal Carcinoma)
Outline: as §1

[6] = system: COLO-824 (Breast Carcinoma)
Outline: as §1

[7] = system: ECC10 (Gastric Carcinoma)
Outline: as §1

[8] = system: Hs-445 (Non-Cancerous)
Outline: as §1

[9] = system: JSC-1 (B-Cell Non-Hodgkin's Lymphoma)
Outline: as §1

[10] = system: KARPAS-422 (B-Cell Non-Hodgkin's Lymphoma)
Outline: as §1

[11] = system: LN-405 (Glioblastoma)
Outline: as §1

[12] = system: NCI-H1650 (Lung Adenocarcinoma)
Outline: as §1

[13] = system: NCI-H1666 (Lung Adenocarcinoma)
Outline: as §1

[14] = system: NCI-H1693 (Lung Adenocarcinoma)
Outline: as §1

[15] = system: NCI-H2066 (Squamous Cell Lung Carcinoma)
Outline: as §1

[16] = system: NCI-H2141 (Small Cell Lung Carcinoma)
Outline: as §1

[17] = system: SISO (Cervical Carcinoma)
Outline: as §1

[18] = system: SK-MES-1 (Squamous Cell Lung Carcinoma)
Outline: as §1

[19] = system: SK-MG-1 (Low Grade Glioma)
Outline: as §1

[20] = system: U-2-OS (Osteosarcoma)
Outline: as §1

Row | Structure (SMILES) | Bliss excess [1] | Bliss excess [2] | Bliss excess [3] | Bliss excess [4] | Bliss excess [5] | Bliss excess [6] | Bliss excess [7] | Bliss excess [8] | Bliss excess [9] | Bliss excess [10] | Bliss excess [11] | Bliss excess [12] | Bliss excess [13] | Bliss excess [14] | Bliss excess [15] | Bliss excess [16] | Bliss excess [17] | Bliss excess [18] | Bliss excess [19] | Bliss excess [20]
1 | CC(=O)c1c(C)c2cnc(Nc3ccc(N4CCNCC4)cn3)nc2n(C2CCCC2)c1=O [Palbociclib] + Cc1c2c(nn1C)CSCc1cc(n(C)n1)CSc1cc(c3ccccc3c1)OCCCc1c(C(=O)O)n(C)c3c-2c(Cl)ccc13 [AZD5991] (first compound max 10 µM, 7x7, partner max 1 µM) | -0.0158 | 0.0338 | -0.0568 | -0.0593 | 0.0565 | -0.0768 | 0.0435 | -0.0598 | -0.0567 | -0.0221 | -0.0445 | -0.0409 | -0.0198 | -0.0168 | -0.0361 | -0.0791 | -0.0282 | -0.0463 | -0.0698 | -0.0224
2 | CC(=O)c1c(C)c2cnc(Nc3ccc(N4CCNCC4)cn3)nc2n(C2CCCC2)c1=O [Palbociclib] + Cn1cnc2c(F)c(Nc3ccc(Br)cc3Cl)c(C(=O)NOCCO)cc21 [Selumetinib] (first compound max 10 µM, 7x7, partner max 10 µM) | 0.182 | -0.0413 | 0.102 | -0.0199 | 0.0832 | -0.0652 | -0.0111 | -0.0852 | 0.0842 | 0.062 | -0.0566 | -0.0775 | -0.0183 | -0.0306 | -0.0344 | -0.0432 | -0.0488 | -0.0088 | 0.0489 | -0.0134
3 | COc1cccc(OCCCN)c1-c1cc(Nc2cnc(C#N)cn2)n[nH]1 [Prexasertib] + C=CCn1c(=O)c2cnc(Nc3ccc(N4CCN(C)CC4)cc3)nc2n1-c1cccc(C(C)(C)O)n1 [AZD1775] (first compound max 1 µM, partner max 1 µM) | 0.0424 | 0.139 | 0.0175 | -0.0231 | 0.0523 | 0.0432 | 0.115 | -0.0366 | 0.0682 | 0.0841 | 0.0469 | 0.0005 | -0.0629 | -0.0139 | -0.0337 | -0.0348 | 0.0814 | -0.0425 | 0.0712 | 0.0506
4 | COc1cccc(OCCCN)c1-c1cc(Nc2cnc(C#N)cn2)n[nH]1 [Prexasertib] + CCc1c2c(nc3ccc(O)cc13)-c1cc3c(c(=O)n1C2)COC(=O)[C@]3(O)CC [SN-38] (first compound max 1 µM, 7x7, partner max 0.3 µM) | 0.0247 | -0.0361 | -0.0684 | -0.0205 | -0.0968 | 0.101 | 0.0145 | -0.0189 | -0.0739 | 0.0037 | 0.0786 | -0.0339 | -0.0269 | 0.0166 | 0.0285 | 0.0455 | 0.0277 | -0.0507 | 0.0719 | -0.0551
5 | COc1cccc(OCCCN)c1-c1cc(Nc2cnc(C#N)cn2)n[nH]1 [Prexasertib] + CN(C)CCCOc1ccc(-c2ccc3ncc4c(c3c2)n(C2CCOCC2)c(=O)n4C)cn1 [AZD0156] (first compound max 1 µM, 7x7, partner max 1 µM) | 0.0134 | -0.0276 | -0.0429 | 0.0147 | -0.0133 | -0.0047 | 0.0071 | -0.0286 | -0.0111 | 0.0128 | 0.0013 | -0.0451 | -0.0291 | -0.0349 | -0.0379 | 0.009 | -0.0056 | -0.0471 | -0.0321 | 0.0176
6 | COc1cccc(OCCCN)c1-c1cc(Nc2cnc(C#N)cn2)n[nH]1 [Prexasertib] + C[C@@H]1COCCN1C2=NC(=NC(=C2)C3(CC3)[S@](=N)(=O)C)C4=C5C=CNC5=NC=C4 [AZD6738] (first compound max 1 µM, 7x7, partner max 10 µM) | 0.0104 | 0.0241 | -0.0153 | -0.003 | -0.0277 | -0.0675 | 0.0929 | -0.0661 | -0.0089 | -0.0734 | -0.136 | 0.0094 | 0.0338 | 0.0816 | -0.0154 | -0.047 | 0.0309 | -0.0205 | -0.0012 | -0.0426
7 | COc1cccc(OCCCN)c1-c1cc(Nc2cnc(C#N)cn2)n[nH]1 [Prexasertib] + Cc1cc2ncnn2cc1Nc1ncc2c(n1)n(C1CCOCC1)c(=O)n2C [AZD7648] (first compound max 1 µM, 7x7, partner max 10 µM) | 0.0126 | 0.0532 | 0.0594 | -0.0045 | -0.0134 | -0.01 | 0.006 | -0.02 | -0.0189 | -0.0787 | -0.017 | 0.0011 | -0.0176 | 0.0337 | 0.0214 | -0.0315 | 0.0136 | -0.0411 | -0.0257 | -0.0223
